Activity calls are given as the source filed them.
Key:
Beta-galactosidase = Beta-galactosidase (Escherichia coli, UniProt Q8VNN2); assay: PubChem AID 485352; format: functional
[1] = target: T1, Type-1 angiotensin II receptor (Homo sapiens, UniProt P30556); assay: AT1 receptor antagonists, dose response, selectivity assay for APJ receptor antagonist project, cell-based, uHTS hits (AID 463214); format: functional;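 note: antagonist potency against angiotensin II stimulated AT1 response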
T1 sequence (P30556 whole entry): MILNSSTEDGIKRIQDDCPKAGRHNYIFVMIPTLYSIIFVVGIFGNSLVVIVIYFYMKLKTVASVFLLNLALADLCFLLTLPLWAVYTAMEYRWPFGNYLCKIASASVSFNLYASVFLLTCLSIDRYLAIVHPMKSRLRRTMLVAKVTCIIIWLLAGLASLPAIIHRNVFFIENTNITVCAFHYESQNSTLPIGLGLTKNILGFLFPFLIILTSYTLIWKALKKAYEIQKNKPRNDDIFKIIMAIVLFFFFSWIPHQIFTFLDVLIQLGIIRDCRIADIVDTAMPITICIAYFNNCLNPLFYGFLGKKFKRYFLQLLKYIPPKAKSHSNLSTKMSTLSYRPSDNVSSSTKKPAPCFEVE

HEK293 = assay: cells; format: functional, cell-based; details: Homo sapiens
[2] = target: T2, Nuclear receptor subfamily 0 group B member 1 (Homo sapiens, UniProt P51843); assay: Luminescence-based cell-based high throughput dose response assay for inhibitors of the orphan nuclear receptor subfamily 0, group B, member 1 (DAX1; NR0B1). [Related pubchem assays (depositor defined):AID504766, AID504790]; format: functional
T2 sequence (P51843 whole entry): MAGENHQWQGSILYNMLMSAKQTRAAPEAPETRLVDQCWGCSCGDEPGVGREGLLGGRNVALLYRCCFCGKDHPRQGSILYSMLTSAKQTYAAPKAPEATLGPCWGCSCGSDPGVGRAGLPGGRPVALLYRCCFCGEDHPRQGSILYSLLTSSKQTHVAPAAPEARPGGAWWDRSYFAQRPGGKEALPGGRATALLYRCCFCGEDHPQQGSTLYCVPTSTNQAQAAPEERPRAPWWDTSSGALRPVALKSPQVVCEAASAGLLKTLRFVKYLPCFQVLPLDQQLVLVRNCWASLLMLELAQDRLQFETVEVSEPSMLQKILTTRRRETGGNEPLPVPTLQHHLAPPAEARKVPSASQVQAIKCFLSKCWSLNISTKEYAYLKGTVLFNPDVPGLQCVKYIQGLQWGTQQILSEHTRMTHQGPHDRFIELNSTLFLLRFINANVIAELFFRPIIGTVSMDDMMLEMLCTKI

A-375 = assay: A375 melanoma cell viability reduction, dose response, counter-screen for MITF modulator project, cherry-pick samples, set 2 (AID 540335); format: functional, cell-based; details: Homo sapiens
Protein Wnt-3a = Protein Wnt-3a (Mus musculus, UniProt P27467); assay: Wnt3a-driven reporter signaling inhibition, dose response, selectivity assay for Gli-SUFU antagonist project, Wnt-LIGHT cells, luminescence (AID 651570); format: functional; details: read-out: IC50_Mean;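 note: Wnt-LIGHT reporter cells stimulated with conditioned medium from Wnt3a-producing cells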
Sequence of Protein Wnt-3a (P27467 whole entry): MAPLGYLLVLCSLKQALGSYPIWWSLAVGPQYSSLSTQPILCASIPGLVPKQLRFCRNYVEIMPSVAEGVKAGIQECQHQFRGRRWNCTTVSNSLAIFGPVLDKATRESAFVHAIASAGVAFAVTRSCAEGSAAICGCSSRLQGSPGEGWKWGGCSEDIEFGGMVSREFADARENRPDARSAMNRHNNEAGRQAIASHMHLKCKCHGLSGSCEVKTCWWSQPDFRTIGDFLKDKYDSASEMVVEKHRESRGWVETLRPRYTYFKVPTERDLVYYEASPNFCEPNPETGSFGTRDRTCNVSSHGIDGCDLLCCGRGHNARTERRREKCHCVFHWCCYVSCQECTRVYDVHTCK

[3] = growth suppression of beta-catenin-knockout colon cells, dose response, cell-based, HCT116, human colon tumor (AID 1045); format: functional;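 note: HCT116 colon tumor cells with beta catenin knocked out; cells exposed to compound for 60 hours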
[4] = growth suppression of PTEN-null colon cells, dose response, cell-based, HCT116 PTEN knockout (AID 1047); format: functional;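 note: HCT116 colon tumor cells with PTEN knocked out; cells exposed to compound for 60 hours before readout; potency for loss of cell viability measured by luminescence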
[5] = target: T3, Microphthalmia-associated transcription factor (Homo sapiens, UniProt O75030); assay: TRPM1 promoter luciferase signal decrease, dose response, MITF inhibitor project, cell-based, SK-MEL-5, cherry-picked, set 3 (AID 493073); format: functional
T3 sequence (O75030 whole entry): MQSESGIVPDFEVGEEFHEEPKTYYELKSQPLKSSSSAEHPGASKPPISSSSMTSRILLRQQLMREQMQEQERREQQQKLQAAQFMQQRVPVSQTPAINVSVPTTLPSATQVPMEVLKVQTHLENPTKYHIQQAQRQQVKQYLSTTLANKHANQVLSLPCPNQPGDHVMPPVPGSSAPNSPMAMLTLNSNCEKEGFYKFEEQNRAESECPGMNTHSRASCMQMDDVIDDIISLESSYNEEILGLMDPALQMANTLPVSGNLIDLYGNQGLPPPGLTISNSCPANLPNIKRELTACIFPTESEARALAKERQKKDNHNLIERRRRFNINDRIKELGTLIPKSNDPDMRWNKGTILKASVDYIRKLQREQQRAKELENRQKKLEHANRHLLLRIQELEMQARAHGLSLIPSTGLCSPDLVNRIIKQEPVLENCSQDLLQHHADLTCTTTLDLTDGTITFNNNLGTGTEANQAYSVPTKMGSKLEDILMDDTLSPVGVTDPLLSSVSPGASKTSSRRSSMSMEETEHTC

BJ [6] = assay: cytotoxicity toward BJ-TERT fibroblasts, dose response, cell-based, RAS-independent, luminescence (AID 1933); format: functional; details: Homo sapiens
BJ [7] = assay: cytotoxicity toward Ras-transformed BJeLR fibroblasts, dose response, cell-based, alamar blue fluorescence, cherrypicked samples (AID 2631); format: functional; details: Homo sapiens;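 note: confirmatory dose-response assay in RAS-dependent BJ fibroblasts engineered with TERT, LT and ST, with cytotoxicity read by fluorescence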
[8] = Luminescence Cell-Based Dose Response HTS to Identify Inhibitors of 5'UTR Stem-Loop Driven Prion Protein mRNA Translation in H4 Neuroglioblastoma Cells. [Related pubchem assays: 1827 (Project Summary), 1813 (Primary HTS)]; format: functional
BJ [9] = assay: cells; format: functional, cell-based; details: Homo sapiens
[10] = inhibitors of firefly luciferase expression or activity, dose response, H4 neuroglioma cells, luminescence (AID 1990); format: functional, cell-based
BJ [11] = assay: cytotoxicity toward BJ-TERT-LT-ST fibroblasts, dose response, cell-based, RAS-independent, luminescence (AID 1935); format: functional; details: Homo sapiens;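 note: BJ fibroblasts immortalized with TERT plus LT and ST oncogenes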
[12] = inhibitors of SNCA 5'UTR-driven reporter translation, confirmation, H4 neuroglioma cells, luminescence (AID 1988); format: functional, cell-based
[13] = cytotoxicity toward DRD oncogenic fibroblasts, dose response, cell-based, non-viral oncogenic, luminescence (AID 1934); format: functional; details: Homo sapiens
[14] = target: Glucose-6-phosphate 1-dehydrogenase (Homo sapiens, UniProt P11413); assay: human G6PD enzyme inhibitors, dose response, selectivity assay for P. falciparum G6PD inhibitor project, biochemical, fluorescence (AID 504792); format: functional
Sequence of Glucose-6-phosphate 1-dehydrogenase (P11413 whole entry): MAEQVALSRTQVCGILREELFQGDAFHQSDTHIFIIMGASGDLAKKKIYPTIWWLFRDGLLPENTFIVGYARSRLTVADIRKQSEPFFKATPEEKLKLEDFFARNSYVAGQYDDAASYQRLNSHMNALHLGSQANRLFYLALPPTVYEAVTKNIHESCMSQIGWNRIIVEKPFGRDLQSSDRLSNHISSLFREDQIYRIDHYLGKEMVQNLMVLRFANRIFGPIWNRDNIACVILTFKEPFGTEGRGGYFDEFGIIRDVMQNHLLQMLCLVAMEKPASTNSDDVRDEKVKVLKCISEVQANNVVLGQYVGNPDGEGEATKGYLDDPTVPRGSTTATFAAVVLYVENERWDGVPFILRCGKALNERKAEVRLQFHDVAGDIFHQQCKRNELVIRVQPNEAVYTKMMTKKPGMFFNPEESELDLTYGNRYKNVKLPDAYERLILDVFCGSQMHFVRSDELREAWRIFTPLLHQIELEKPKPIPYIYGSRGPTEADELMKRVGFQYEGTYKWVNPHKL

Genome polyprotein = Genome polyprotein (dengue virus type 2, UniProt P29990); assay: Dengue-2 NS5 methyltransferase inhibitors, primary screen, biochemical, confirmation dose response (AID 588689); format: functional
Sequence of Genome polyprotein (P29990 2492-3391 limits assumed): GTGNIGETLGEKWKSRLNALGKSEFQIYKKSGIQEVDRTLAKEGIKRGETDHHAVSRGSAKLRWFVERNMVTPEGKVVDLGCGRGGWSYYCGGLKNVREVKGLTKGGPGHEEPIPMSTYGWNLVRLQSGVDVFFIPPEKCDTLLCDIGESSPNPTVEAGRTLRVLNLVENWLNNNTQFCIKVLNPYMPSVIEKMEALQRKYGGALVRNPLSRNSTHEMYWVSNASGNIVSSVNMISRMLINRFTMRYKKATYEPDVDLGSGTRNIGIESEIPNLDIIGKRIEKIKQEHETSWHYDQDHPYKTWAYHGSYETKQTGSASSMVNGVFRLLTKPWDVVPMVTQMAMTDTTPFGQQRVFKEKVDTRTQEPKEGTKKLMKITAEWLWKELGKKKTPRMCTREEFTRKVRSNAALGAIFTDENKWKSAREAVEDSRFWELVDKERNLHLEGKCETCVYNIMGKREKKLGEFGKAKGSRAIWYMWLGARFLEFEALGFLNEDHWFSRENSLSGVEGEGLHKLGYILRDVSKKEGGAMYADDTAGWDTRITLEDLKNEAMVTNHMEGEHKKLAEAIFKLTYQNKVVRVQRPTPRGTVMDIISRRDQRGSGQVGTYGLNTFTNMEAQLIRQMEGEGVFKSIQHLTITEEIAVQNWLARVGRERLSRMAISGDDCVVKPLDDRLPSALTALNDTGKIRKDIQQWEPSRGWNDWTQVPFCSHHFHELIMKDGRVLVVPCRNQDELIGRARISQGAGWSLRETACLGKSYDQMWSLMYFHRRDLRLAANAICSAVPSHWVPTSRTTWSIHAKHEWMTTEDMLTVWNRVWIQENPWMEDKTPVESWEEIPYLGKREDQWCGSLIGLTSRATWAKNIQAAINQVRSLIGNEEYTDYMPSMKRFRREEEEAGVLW

Beta-arrestin-1 = Beta-arrestin-1 (Homo sapiens, UniProt P49407); assay: inhibitors of arrestin peptide binding to AP2, dose response, biochemical, cherry pick 1, beta2-adaptin appendage, flow cytometry (AID 588783); format: functional
Sequence of Beta-arrestin-1 (P49407 whole entry): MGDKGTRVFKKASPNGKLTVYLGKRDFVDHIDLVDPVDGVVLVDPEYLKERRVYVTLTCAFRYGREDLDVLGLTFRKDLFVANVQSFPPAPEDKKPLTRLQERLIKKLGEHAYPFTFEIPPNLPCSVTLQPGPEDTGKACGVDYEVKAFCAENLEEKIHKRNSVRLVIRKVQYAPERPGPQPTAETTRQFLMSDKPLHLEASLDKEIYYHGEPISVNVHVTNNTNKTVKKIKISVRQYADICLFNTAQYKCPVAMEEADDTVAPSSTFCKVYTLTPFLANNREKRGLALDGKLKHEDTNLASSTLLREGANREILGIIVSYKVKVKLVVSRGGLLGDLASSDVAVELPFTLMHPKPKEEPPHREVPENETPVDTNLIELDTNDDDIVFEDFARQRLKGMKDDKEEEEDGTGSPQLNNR

Vero [15] = assay: Vero cell cytotoxicity, cytotoxicity control for flavivirus capping enzyme inhibitors (AID 588742); format: functional; details: Chlorocebus sabaeus
[16] = target: Heat shock protein HSP 90-alpha (Homo sapiens, UniProt P07900); format: functional, organism-based
Vero [17] = assay: cells; format: functional; details: Chlorocebus sabaeus
[18] = target: T4, Short transient receptor potential channel 4 (Mus musculus, UniProt Q9QUQ5); assay: TRPC4 inhibitor concentration-response, dose response, cell-based, HEK293 TRPC4/mu-opioid, DAMGO stimulus, Fluo-4 (AID 492994); format: functional
T4 sequence (Q9QUQ5 whole entry): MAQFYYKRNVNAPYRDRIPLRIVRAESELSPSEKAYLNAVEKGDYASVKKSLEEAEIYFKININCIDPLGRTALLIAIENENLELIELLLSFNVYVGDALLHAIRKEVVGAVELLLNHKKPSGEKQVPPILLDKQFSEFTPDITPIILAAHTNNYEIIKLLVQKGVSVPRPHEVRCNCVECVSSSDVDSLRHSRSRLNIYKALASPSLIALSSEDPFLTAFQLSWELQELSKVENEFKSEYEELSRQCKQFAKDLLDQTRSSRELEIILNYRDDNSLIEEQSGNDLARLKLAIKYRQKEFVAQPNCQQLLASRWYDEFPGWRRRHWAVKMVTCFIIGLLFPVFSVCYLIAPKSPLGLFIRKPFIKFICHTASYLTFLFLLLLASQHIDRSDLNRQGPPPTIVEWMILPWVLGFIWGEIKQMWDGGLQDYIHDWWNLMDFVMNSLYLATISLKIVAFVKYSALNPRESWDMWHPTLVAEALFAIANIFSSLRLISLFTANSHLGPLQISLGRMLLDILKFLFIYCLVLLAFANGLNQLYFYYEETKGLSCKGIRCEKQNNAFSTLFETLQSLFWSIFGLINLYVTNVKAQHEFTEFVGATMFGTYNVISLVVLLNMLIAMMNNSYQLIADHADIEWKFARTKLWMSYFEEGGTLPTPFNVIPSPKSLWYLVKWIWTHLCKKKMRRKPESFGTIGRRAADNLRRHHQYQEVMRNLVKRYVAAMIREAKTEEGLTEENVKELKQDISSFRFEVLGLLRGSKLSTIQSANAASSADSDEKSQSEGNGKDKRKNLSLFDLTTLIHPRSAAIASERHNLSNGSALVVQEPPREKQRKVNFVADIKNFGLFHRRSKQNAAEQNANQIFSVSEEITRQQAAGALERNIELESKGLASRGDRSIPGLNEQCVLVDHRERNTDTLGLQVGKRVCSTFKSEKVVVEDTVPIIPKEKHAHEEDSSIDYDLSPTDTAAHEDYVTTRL

[19] = Luminescence Cell-Based Dose Response HTS to Identify Activators of Luciferase Translation or Activity in H4 […] Cells. [Related pubchem assays: 1829 (Project Summary), 1814 (Primary HTS)]; format: functional
H4 = assay: Luminescence Cell-Based Dose Response HTS to Identify Activators of 5'UTR Stem-Loop Driven Prion Protein mRNA Translation in H4 Neuroglioblastoma Cells. [Related pubchem assays: 1829 (Project Summary), 1814 (Primary HTS)]; format: functional; details: Homo sapiens

Sequence of Beta-galactosidase (Q8VNN2 whole entry): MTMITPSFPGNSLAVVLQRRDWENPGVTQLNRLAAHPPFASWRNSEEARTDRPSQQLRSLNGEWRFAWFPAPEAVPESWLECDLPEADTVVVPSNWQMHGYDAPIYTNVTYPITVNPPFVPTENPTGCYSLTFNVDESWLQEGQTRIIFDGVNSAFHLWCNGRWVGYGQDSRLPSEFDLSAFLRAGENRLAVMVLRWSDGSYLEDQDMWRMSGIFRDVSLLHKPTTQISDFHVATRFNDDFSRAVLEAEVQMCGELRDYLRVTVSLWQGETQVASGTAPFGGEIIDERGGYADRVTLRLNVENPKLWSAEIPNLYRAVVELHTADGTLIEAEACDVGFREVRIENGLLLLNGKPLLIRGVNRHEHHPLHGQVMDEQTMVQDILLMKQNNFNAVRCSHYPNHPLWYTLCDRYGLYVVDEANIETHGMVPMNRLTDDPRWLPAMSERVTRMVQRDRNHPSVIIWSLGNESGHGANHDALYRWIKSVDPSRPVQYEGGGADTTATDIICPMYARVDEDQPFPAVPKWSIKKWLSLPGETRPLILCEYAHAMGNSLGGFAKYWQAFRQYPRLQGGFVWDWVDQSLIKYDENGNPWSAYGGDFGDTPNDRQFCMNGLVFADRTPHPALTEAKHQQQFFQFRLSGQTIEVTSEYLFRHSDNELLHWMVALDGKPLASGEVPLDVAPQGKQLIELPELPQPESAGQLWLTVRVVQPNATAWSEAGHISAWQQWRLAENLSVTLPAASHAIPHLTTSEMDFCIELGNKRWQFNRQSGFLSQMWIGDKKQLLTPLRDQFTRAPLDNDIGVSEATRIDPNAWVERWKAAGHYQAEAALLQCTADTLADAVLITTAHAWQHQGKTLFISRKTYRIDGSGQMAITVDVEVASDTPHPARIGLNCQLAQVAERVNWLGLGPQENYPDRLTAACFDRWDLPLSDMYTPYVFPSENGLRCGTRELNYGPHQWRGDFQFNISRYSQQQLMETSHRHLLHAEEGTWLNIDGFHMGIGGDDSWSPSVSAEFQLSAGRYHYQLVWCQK

Compound: CC1CCCN(CC(=O)c2ccc(Cl)c(Cl)c2)C1 (stereo not drawn)
- EC50 (Beta-galactosidase): 30.8 µM (active)
- IC50 [1]: 4.76 µM (active)

Compound: O=C(O)Cc1sc(Nc2ccccc2)nc1-c1cccs1
- IC50 (HEK293): > 67.5 µM (inactive)
- IC50 [2]: > 67.5 µM (inactive)

Compound: CCn1c(/C=C/Nc2ccccc2)[n+](CC)c2cc(Cl)c(Cl)cc21
- AC50 (A-375): 34.8 µM (active)
- IC50 (Protein Wnt-3a): 7.29 µM (active)
- EC50 [3]: 1.68 µM (active)
- EC50 [4]: 2.4 µM (active)
- AC50 [5]: 14.5 µM (active)

Compound: Cc1ccnc(NC(=O)c2ccccc2NC(=O)c2ccc(Cl)cc2Cl)c1
- EC50 (BJ [6]): 2.87 µM (active)
- EC50 (BJ [7]): 0.573 µM (active)
- EC50 [8]: > 120 µM (not active)
- EC50 (BJ [9]): 34.8 µM (inconclusive)
- EC50 [10]: 10.6 µM (inconclusive)
- EC50 (BJ [11]): 4.38 µM (active)
- EC50 [12]: > 120 µM (not active)
- EC50 [13]: 2.83 µM (active)

Compound: Cn1c2ccccc2c2ccc3c(c21)C(=O)C=CC3=O
- IC50 [14]: > 80 µM (inactive)
- IC50 (Genome polyprotein): 15.8 µM (active)
- IC50 (Beta-arrestin-1): 4.59 µM (active)
- CC50 (Vero [15]): 29.2 µM (active)
- AC50 [16]: 8.99 µM (active)
- CC50 (Vero [17]): 12.6 µM (active)

Compound: Cc1cc(N2CCN(c3ncccn3)CC2)nc2ccccc12
- IC50 [18]: 469 µM (active)

Compound: Clc1ccc(/C=N/Nc2ncnc3ccccc23)cc1Cl
- IC50 (HEK293): > 67.5 µM (inactive)
- EC50 [19]: 0.181 µM (active)
- IC50 [2]: > 67.5 µM (inactive)
- EC50 (H4): 7.13 µM (active)
